Reference: patent US11072628B2, “Nucleoside analogues for the treatment of parasitic infections” (UNIVERSITEIT GENT, priority 2017, dated 2021)
“And” between values parts separate entries of the source, which are not always exact repeats. Identical values can stand only once. Like-named read-outs stand apart in the source and are kept apart here.

Key:
[1] = tested on: T. vaginalis trophozoites (metronidazole susceptible G3 strain); test: Trichomonas vaginalis in vitro assay; format: cell-based; conditions: average of 2-5 independent replicates
Procedure: T. vaginalis trophozoites (metronidazole susceptible G3 strain) were grown in vitro in modified Diamond's media (MDM) with 10% heat inactivated horse serum (HIHS) acquired from Gibco Life Technologies. After medium preparation, the pH was adjusted to 6.3-6.4 employing 1.0 M aq. HCl. Parasites cultures were passaged every day by taking 1 mL of cell culture into a 25 mL bottle of fresh media to ensure the cells were kept at the appropriate concentration of ˜2×10^6 cells/mL. The culture flasks were filled completely and tightly capped to provide the cells with an anaerobic environment. The parasites were maintained in incubation at 37° C. When culturing in multiwell plates, the plates were sealed with Nescofilm® and inserted in BD GasPak EZ pouches (BD Diagnostics, UK) in order to create anaerobic conditions. Assays were performed with 5×10^4 trophozoites/well (100 μL) to which compound dilutions were added (100 μL). Outside wells of columns and rows were filled with 200 μL of sterile water. Plates were sealed with Nescofilm® and incubated under anaerobic conditions as described above. After 24 h, 30 μL of assay dye solution (resorufin) was added, and incubated for 1-2 h before being read using Fluostar Optima (BMG Labtech, UK) at an excitation wavelength of 544 nm and an emission wavelength of 620 nm.

[2] = tested on: T. cruzi Tulahuen CL2 β galactosidase strain; test: T. cruzi Tulahuen CL2 β galactosidase strain on MRC-5SV2 cells (CPRG); format: cell-based, Trypanosoma cruzi
Procedure: All cultures and assays were conducted at 37° C./5% CO2. […] The results were expressed as % reduction in parasite burdens compared to control wells from which an EC50 was calculated.

[3] = tested on: T. b. rhodesiense STIB-900; test: In vitro drug susceptibility, T. b. rhodesiense STIB-900 (resazurin); format: cell-based, Trypanosoma brucei rhodesiense
Procedure: (§1) All trypanosome strains were cultured in the standard HMI-9 medium supplemented with 10% fetal bovine serum (FBS) at 37° C. in a 5% CO2 atmosphere.

MRC-5 fibroblasts = test: Cytotoxicity against MRC-5 fibroblasts; conditions: read-out: MRC-5 EC50, cytotoxicity
Procedure: (§2) Cytotoxicity was assayed against MRC-5 fibroblasts. Results are depicted in Tables 4 and 5.

T. brucei Squib 427 = test: In vitro drug susceptibility, T. brucei Squib 427 (resazurin); format: cell-based, Trypanosoma brucei brucei; conditions: for selectivity index (SI) for T. b. brucei: MRC-5 versus T. b. brucei
Procedure: as §1

[4] = tested on: T. b. brucei Lister 427 (wild-type); test: Drug susceptibility test, Lister 427WT (resazurin); format: cell-based; conditions: Trypanosoma brucei, read-out: Lister-427 EC50
Procedure: (§3) Fluorescence was determined using a FLUOstar Optima (BMG Labtech, Durham, N.C.) and the results fitted to a sigmoid curve with variable slope using Prism 5.0 (GraphPad, San Diego, Ca).

T. b. brucei Squib 427 = test: In vivo antiparasitic activity in mice (T. brucei; acute model); design: species or system Trypanosoma brucei brucei; conditions: for clinical symptoms of trypanosomiasis / parasitemia: infected mice, 5 consecutive days, test compound 25 mg/kg PO b.i.d. (FH7429_D also 10 mg/kg s.i.d. IP), suramin 10 mg/kg
Procedure: The test compound of the invention was formulated in 10% (V/V) PEG400 in water at 2 mg/mL and was freshly prepared at every administration. The test compound was administered orally (PO) b.i.d. for 5 days at 25 mg/kg. The reference drug suramin was formulated in PBS at 2.5 mg/mL and administered s.i.d. IP for 5 days at 10 mg/kg. Treatment was initiated ½ hour prior to the IP infection.

T. b. brucei ISMR1 = test: microbe, parasite or virus in culture; format: cell-based, Trypanosoma brucei brucei; conditions: for EC50: Trypanosoma brucei, read-out: ISMR1 EC50; for RF (resistance factor) ISMR1: ratio of EC50 between ISMR1 and Lister-427
Procedure: as §3

T. b. brucei B48 = test: microbe, parasite or virus in culture; format: cell-based, Trypanosoma brucei brucei; conditions: for EC50: Trypanosoma brucei, read-out: B48 EC50; for RF (resistance factor) B48: ratio of EC50 between B48 and Lister-427
Procedure: as §3

T. b. brucei TbAT1-KO = test: microbe, parasite or virus in culture; format: cell-based, Trypanosoma brucei brucei; conditions: for EC50: Trypanosoma brucei, read-out: TbAT1-KO EC50; for RF (resistance factor) TbAT1-KO: ratio of EC50 between TbAT1-KO and Lister-427
Procedure: as §3

[5] = Cytotoxicity against MRC-5 fibroblasts; conditions: human
Procedure: as §2

[6] = Trypanosoma cruzi, TULAHUEN, MRC-5 SV2, Table 5, average of 2-4 independent replicates
[7] = Trypanosoma brucei, RHODESIENSE, read-out: T.b. rhod. EC50
[8] = Trypanosoma brucei, read-out: T.b. brucei EC50, Table 4, average of 2-6 independent determinations
[9] = MRC-5 fibroblasts, MRC-5 EC50, Table 4, cytotoxicity
[10] = MRC-5 fibroblasts, MRC-5 EC50, Table 5, cytotoxicity
[11] = Trypanosoma brucei, read-out: EC50 against T. brucei
[12] = Table 2, average of 2-3 independent replicates
[13] = Table 1, average of 2-4 independent determinations, read-out: T. brucei rhod. EC50
[14] = Table 1, average of 2-4 independent determinations, read-out: T. brucei brucei EC50

Nc1ncnc2c1c(-c1ccc3ccccc3c1)cn2[C@@H]1O[C@H](CO)[C@@H](O)[C@H]1O [FH8461, 4-amino-5-(2-naftyl)-N7-(β-D-ribofuranosyl)-pyrrolo[2,3-d]pyrimidine]
EC50 ([1]; Table 6): 580 nM | EC50 ([2]; Table 5, average of 2-4 independent replicates): 2480 nM | EC50 ([3]; Table 4, average of 2-6 independent determinations, read-out: T.b. rhod. EC50): 6790 nM | EC50 (MRC-5 fibroblasts; Table 4): 7530 nM | EC50 (MRC-5 fibroblasts; Table 5): 7530 nM | EC50 (T. brucei Squib 427; Table 4, average of 2-6 independent determinations, read-out: T.b. brucei EC50): 7830 nM

Nc1ncnc2c1c(-c1ccccn1)cn2[C@@H]1O[C@H](CO)[C@@H](O)[C@H]1O [TH1008, 4-amino-5-(pyrid-2-yl)-N7-(β-D-ribofuranosyl)-pyrrolo[2,3-d]pyrimidine]
EC50 [4]: 170 ± 40 nM | detectability of parasites in the peripheral blood (T. b. brucei Squib 427; 25 mg/kg PO b.i.d. for 5 days): undetectable from 8 dpi onwards | parasites in the peripheral blood, mean Log10 (T. b. brucei Squib 427; 4 dpi, 25 mg/kg PO b.i.d. for 5 days): 7.5 | parasitological cure (sub-inoculation in naive mice) (T. b. brucei Squib 427; animals surviving until day 21 post infection): total parasitological cure | clinical symptoms of trypanosomiasis / parasitemia (T. b. brucei Squib 427): no clinical symptoms of trypanosomiasis were observed | adverse drug effects (T. b. brucei Squib 427; mice, 5 days treatment): No signs of adverse drug effects were observed | EC50 [2, 6]: 5020 nM | selectivity index for T. b. rhodesiense ([3]; MRC-5 versus T. b. rhodesiense): ~500 | EC50 [3, 7]: 31 nM | EC50 (T. b. brucei ISMR1): 430 ± 70 nM | RF (resistance factor) ISMR1 (T. b. brucei ISMR1): 2.5 | EC50 (T. b. brucei B48): 270 ± 40 nM | RF (resistance factor) B48 (T. b. brucei B48): 1.6 | EC50 (T. b. brucei TbAT1-KO): 400 ± 90 nM | RF (resistance factor) TbAT1-KO (T. b. brucei TbAT1-KO): 2.4 | anti-trypanosomal activity against T. brucei, in words (T. brucei Squib 427): nanomolar antitrypanosomal activity | selectivity index (SI) for T. b. brucei (T. brucei Squib 427): 50 | EC50 (T. brucei Squib 427; [8]): 360 nM

CC[n+]1c(-c2ccccc2)c2cc(N/N=N/c3cccc(C(=N)N)c3)ccc2c2ccc(N)cc21 [Isometamidium]
EC50 [4]: 650 ± 85 nM | EC50 (T. b. brucei ISMR1): 3100 ± 500 nM | RF (resistance factor) ISMR1 (T. b. brucei ISMR1): 4.81 | EC50 (T. b. brucei B48): 560 ± 130 nM | RF (resistance factor) B48 (T. b. brucei B48): 0.85 | EC50 (T. b. brucei TbAT1-KO): 750 ± 140 nM | RF (resistance factor) TbAT1-KO (T. b. brucei TbAT1-KO): 1.2

Nc1ncnc2c1c(-c1cccc(Cl)c1)cn2[C@@H]1O[C@H](CO)[C@@H](O)[C@H]1O [FH8459, 4-amino-5-(3-chlorophenyl)-N7-(β-D-ribofuranosyl)-pyrrolo[2,3-d]pyrimidine]
EC50 ([1]; Trichomonas vaginalis, Table 6): 240 nM | EC50 [2, 6]: 1420 nM | EC50 [3, 7]: 6880 nM | melting point: 135 °C | EC50 [5, 9]: 32800 nM | EC50 [5, 10]: 32800 nM | EC50 (T. brucei Squib 427; [11]): < 10000 nM | EC50 (T. brucei Squib 427; [8]): 9900 nM

Cc1ccc(-c2cn([C@@H]3O[C@H](CO)[C@@H](O)[C@H]3O)c3ncnc(N)c23)cc1 [TH1011, 4-amino-5-(4-methylphenyl)-N7-(β-D-ribofuranosyl)-pyrrolo[2,3-d]pyrimidine]
EC50 ([1]; Trichomonas vaginalis, Table 6): 60 nM | EC50 [2, 6]: 1500 nM | melting point: 165 °C | EC50 [5, 9]: 26200 nM | EC50 [5, 10]: 26200 nM | EC50 (T. brucei Squib 427; [8]): 29100 nM

COc1ccc(-c2cn([C@@H]3O[C@H](CO)C[C@H]3O)c3ncnc(N)c23)cc1 [FH8494, 4-amino-5-(4-methoxyphenyl)-N7-(3′-deoxy-β-D-ribofuranosyl)-pyrrolo[2,3-d]pyrimidine]
EC50 ([1]; Table 3): 730 nM | EC50 [2, 12]: 2400 nM | EC50 [3, 13]: 1200 nM | EC50 (MRC-5 fibroblasts; Table 1): 24300 nM | EC50 (MRC-5 fibroblasts; Table 2): 24300 nM | EC50 (T. brucei Squib 427; [14]): 3700 nM

N=C(N)c1ccc(OCCCCCOc2ccc(C(=N)N)cc2)cc1 [Pentamidine]
EC50 ([4]; reference cell line): 11 ± 1 nM | EC50 (T. b. brucei ISMR1): 140 ± 40 nM | EC50 (T. b. brucei B48): 990 ± 160 nM | EC50 (T. b. brucei TbAT1-KO): 18 ± 2 nM | RF (resistance factor) TbAT1-KO (T. b. brucei TbAT1-KO): 1.8

Nc1ncnc2c1c(-c1ccc(Cl)c(Cl)c1)cn2[C@@H]1O[C@H](CO)[C@@H](O)[C@H]1O [FH3147, 4-amino-5-(3,4-dichlorophenyl)-N7-(β-D-ribofuranosyl)-pyrrolo[2,3-d]pyrimidine]
EC50 ([1]; Trichomonas vaginalis, Table 6): 20 nM | EC50 [2, 6]: 190 nM | EC50 [3, 7]: 320 nM | melting point: 221 to 223 °C | EC50 [5, 9]: 14700 nM | EC50 [5, 10]: 14700 nM | selectivity index (SI) for T. b. brucei (T. brucei Squib 427): ~5 | EC50 (T. brucei Squib 427; [8]): 3070 nM

Nc1ncnc2c1ccn2[C@@H]1O[C@H](CO)[C@@H](O)[C@H]1O [FH5284, tubercidin]
EC50 [4]: 150 ± 30 nM | EC50 [2, 6]: 340 nM | EC50 (T. b. brucei ISMR1): 1700 ± 500 nM | EC50 (T. b. brucei B48): 4300 ± 1300 nM | EC50 (T. b. brucei TbAT1-KO): 2600 ± 700 nM | RF (resistance factor) TbAT1-KO (T. b. brucei TbAT1-KO): > 17 and 17.2 | EC50 [5]: 2230 nM | EC50 (T. brucei Squib 427; [8]): 480 nM

N=C(N)c1ccc(/N=N/Nc2ccc(C(=N)N)cc2)cc1 [Diminazene]
EC50 [4]: 420 ± 64 nM | EC50 (T. b. brucei ISMR1): 2900 ± 420 nM | RF (resistance factor) ISMR1 (T. b. brucei ISMR1): 6.9 | EC50 (T. b. brucei B48): 7200 ± 1600 nM | EC50 (T. b. brucei TbAT1-KO): 4500 ± 900 nM | RF (resistance factor) TbAT1-KO (T. b. brucei TbAT1-KO): 10.6

Cc1ccc(C(=O)Nc2ccc(S(=O)(=O)O)c3cc(S(=O)(=O)O)cc(S(=O)(=O)O)c23)cc1NC(=O)c1cccc(NC(=O)Nc2cccc(C(=O)Nc3cc(C(=O)Nc4ccc(S(=O)(=O)O)c5cc(S(=O)(=O)O)cc(S(=O)(=O)O)c45)ccc3C)c2)c1 [Suramin, reference compound]
clinical symptoms of trypanosomiasis / parasitemia (T. b. brucei Squib 427): no symptoms nor parasitemia developed | EC50 ([3]; Trypanosoma brucei, RHODESIENSE, Table 1, average of 2-4 independent determinations, read-out: T. brucei rhod. EC50): 40 nM | EC50 ([3]; Trypanosoma brucei, RHODESIENSE, Table 4, average of 2-6 independent determinations, read-out: T.b. rhod. EC50): 40 nM | EC50 (T. brucei Squib 427; Trypanosoma brucei, Table 1, average of 2-4 independent determinations, read-out: T. brucei brucei EC50): 50 nM | EC50 (T. brucei Squib 427; Trypanosoma brucei, Table 4, average of 2-6 independent determinations, read-out: T.b. brucei EC50): 50 nM

Nc1ncnc2c1c(-c1ccc(F)cc1)cn2[C@@H]1O[C@H](CO)[C@@H](O)[C@H]1O [MS1001, 4-amino-5-(4-fluorophenyl)-N7-(β-D-ribofuranosyl)-pyrrolo[2,3-d]pyrimidine]
EC50 ([1]; Trichomonas vaginalis, Table 6): 110 nM | EC50 [2, 6]: 490 nM | EC50 [3, 7]: 14700 nM | melting point: 145 to 148 °C (dec.) | EC50 [5, 9]: > 64000 nM | EC50 [5, 10]: > 64000 nM | EC50 (T. brucei Squib 427; [11]): < 10000 nM | EC50 (T. brucei Squib 427; [8]): 8810 nM

Nc1ncnc2c1c(-c1ccc(OC(F)(F)F)cc1)cn2[C@@H]1O[C@H](CO)C[C@H]1O [FH9577, 4-amino-5-(4-trifluoromethoxyphenyl)-N7-(3′-deoxy-β-D-ribofuranosyl)-pyrrolo[2,3-d]pyrimidine]
EC50 ([1]; Table 3): 790 nM | EC50 [2, 12]: 1390 nM | EC50 [3, 13]: 9800 nM | EC50 (MRC-5 fibroblasts; Table 1): 40400 nM | EC50 (MRC-5 fibroblasts; Table 2): 40400 nM | EC50 (T. brucei Squib 427; [14]): 24500 nM
